Experimental data as given in paper PMC9571302, “Evaluation of Major Constituents of Medicinally Important Plants for Anti-Inflammatory, Antidiabetic and AGEs Inhibiting Properties: In Vitro and Simulatory Evidence” (Molecules, 2022).
Where two headings read alike, the source gives them in different places.

Columns and labels:
α-glucosidase = experiment: α-Glucosidase inhibition assay; assay type: biochemical, Saccharomyces cerevisiae
Protocol: 4.5.1. α-Glucosidase Inhibition Assay
The α-glucosidase inhibition experiment was accomplished by using a modified method. Initially, the enzyme solution (from Saccharomyces cerevisiae) (0.2 units/mL dissolved in 0.1 M phosphate buffer; pH 6.8) was mixed with the test sample (1 to 0.039 mg/mL) and incubated in an oven (37 °C for 10 min). After incubation, the substrate (p-nitrophenyl-α-D-glucopyranoside; 0.29 mM) was added to the enzyme and test sample solution and incubated for another 30 min (37 °C).
The percentage of inhibition was determined using the following formula: % Inhibition = [1 − absorbance of test sample/absorbance of control] × 100

[1] = target: T1, bovine serum albumin (BSA) glycation by methylglyoxal (Bos taurus, UniProt P02769); experiment: AGEs assay, oxidative (BSA-MGO assay); assay type: biochemical
T1 construct: purchased Merck (Dorset, UK) and Oxoid (Hampshire, UK)
T1 sequence (P02769 25-607): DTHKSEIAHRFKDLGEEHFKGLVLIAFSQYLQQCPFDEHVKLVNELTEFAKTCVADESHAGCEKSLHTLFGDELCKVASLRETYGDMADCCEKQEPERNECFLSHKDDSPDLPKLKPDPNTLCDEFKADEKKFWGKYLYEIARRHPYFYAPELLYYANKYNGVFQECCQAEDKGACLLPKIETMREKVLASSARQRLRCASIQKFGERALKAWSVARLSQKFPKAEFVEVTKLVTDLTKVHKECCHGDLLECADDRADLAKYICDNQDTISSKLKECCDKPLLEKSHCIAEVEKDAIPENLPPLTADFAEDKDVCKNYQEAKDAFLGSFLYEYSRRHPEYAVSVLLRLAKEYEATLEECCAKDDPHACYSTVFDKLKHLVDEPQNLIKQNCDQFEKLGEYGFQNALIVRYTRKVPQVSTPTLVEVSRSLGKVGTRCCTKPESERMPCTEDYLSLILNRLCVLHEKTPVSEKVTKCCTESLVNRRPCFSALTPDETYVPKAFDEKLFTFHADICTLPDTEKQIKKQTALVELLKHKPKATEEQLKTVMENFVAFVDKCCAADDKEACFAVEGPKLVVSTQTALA
Protocol: The test samples were added to this reaction mixture and stored at 37 °C for a week. […] The control samples used for the experiment were prepared using the same protocol without a test sample.
The AGEs inhibition was determined as % inhibition = {1 − [(Fluo (BSA + MGO + test substance) − Fluo (BSA + test substance)]/[(Fluo (BSA + MGO) − Fluo (BSA)]} × 100 where Fluo is the fluorescence intensity. The IC50 was calculated using MS Excel.

[2] = target: T2, BSA cross-link formation (BSA-MGO) (Bos taurus, UniProt P02769); experiment: Protein cross-linking assay by SDS-PAGE, BSA-MGO; assay type: biochemical, bovine; details: SDS-PAGE integrated density
T2 construct: purchased Merck (Dorset, UK) and Oxoid (Hampshire, UK)
T2 sequence (P02769 25-607): as above
Protocol: (§1) 4.5.4. Protein Cross-Linking Assay
(§2) Protein cross-linked by AGEs were observed by SDS-PAGE (sodium dodecyl sulphate-polyacrylamide gel electrophoresis). In this experiment, gels (10%) were made and stained with dye (0.25% Coomassie blue). The protein samples (6 µL) were diluted with Tris–HCl buffer (3.75 mL, 0.05 M; pH 6.8) also comprising sodium dodecyl sulphate (150 µL, 10% w/v), 2-mercaptoethanol 1% (v/v) and glycerin 20% v/v), followed by boiling for 5 min. The ladder (12 μL) was loaded into the well on gel preceded by the loading of bromophenol blue (2 μL). After loading, the electrophoresis was accomplished by using the Mini-Protean® Tetra Cell apparatus (Bio-Rad, UK). Afterwards, the gels were stained in a solution containing Coomassie blue [0.25% (w/v)], methanol [50% (v/v)] and acetic acid [10% (v/v)].
(§3) 4.5.5. SDS-PAGE Gels Image Analysis
(§4) The developed gel was stained with Coomassie blue and images were obtained using GelDoc. Finally, the Image J tool was used for the determination of integrated density (IntDen). The integrated density was employed further for the determination of percentage inhibition. The integrated density (ID) was determined as follows:Integrated density (ID) = N × (mean − background) where N is the number of pixels in the selection and the background is the modal grey value (most common pixel value) after smoothing the histogram.

[3] = target: T3, bovine serum albumin (BSA) glycation by glucose (Bos taurus, UniProt P02769); experiment: AGEs assay, non-oxidative (BSA-glucose assay); assay type: biochemical
T3 construct: purchased Merck (Dorset, UK) and Oxoid (Hampshire, UK)
T3 sequence (P02769 25-607): as above
Protocol: 4.5.2. AGEs Assay (BSA-Glucose Assay)
The AGEs assay was accomplished by using a standard protocol. The protein source (bovine serum albumin, BSA) (10 mg/mL; 135 µL) was mixed with D-glucose solution (500 mM, 135 µL in phosphate buffer; 50 mM, pH 7.4), NaN3 (sodium azide; 0.02%) and test samples (various concentrations). The reaction mixtures were kept at 60 °C for 1 week to facilitate glycation. Finally, trichloroacetic acid (10 µL, 100%) was added to it to stop the reaction and precipitate the unbound material. […] Aminoguanidine was used as positive control. The control samples used for the experiment were prepared using the same protocol without the test sample.
The AGEs inhibition was calculated as % inhibition = {1 − [Fluo(BSA + glucose + test substance) − Fluo (BSA + test substance)]/[Fluo (BSA + glucose) − Fluo(BSA)]} × 100 where Fluo is the fluorescence intensity. The IC50 was calculated using MS Excel.

15-LOX (lipoxygenase) = target: T4, 15-LOX (lipoxygenase) (Glycine max, UniProt P08170); experiment: 15-Lipoxygenase assay; assay type: biochemical
T4 construct: purchased Merck (Dorset, UK) and Oxoid (Hampshire, UK)
T4 sequence (P08170 1-839): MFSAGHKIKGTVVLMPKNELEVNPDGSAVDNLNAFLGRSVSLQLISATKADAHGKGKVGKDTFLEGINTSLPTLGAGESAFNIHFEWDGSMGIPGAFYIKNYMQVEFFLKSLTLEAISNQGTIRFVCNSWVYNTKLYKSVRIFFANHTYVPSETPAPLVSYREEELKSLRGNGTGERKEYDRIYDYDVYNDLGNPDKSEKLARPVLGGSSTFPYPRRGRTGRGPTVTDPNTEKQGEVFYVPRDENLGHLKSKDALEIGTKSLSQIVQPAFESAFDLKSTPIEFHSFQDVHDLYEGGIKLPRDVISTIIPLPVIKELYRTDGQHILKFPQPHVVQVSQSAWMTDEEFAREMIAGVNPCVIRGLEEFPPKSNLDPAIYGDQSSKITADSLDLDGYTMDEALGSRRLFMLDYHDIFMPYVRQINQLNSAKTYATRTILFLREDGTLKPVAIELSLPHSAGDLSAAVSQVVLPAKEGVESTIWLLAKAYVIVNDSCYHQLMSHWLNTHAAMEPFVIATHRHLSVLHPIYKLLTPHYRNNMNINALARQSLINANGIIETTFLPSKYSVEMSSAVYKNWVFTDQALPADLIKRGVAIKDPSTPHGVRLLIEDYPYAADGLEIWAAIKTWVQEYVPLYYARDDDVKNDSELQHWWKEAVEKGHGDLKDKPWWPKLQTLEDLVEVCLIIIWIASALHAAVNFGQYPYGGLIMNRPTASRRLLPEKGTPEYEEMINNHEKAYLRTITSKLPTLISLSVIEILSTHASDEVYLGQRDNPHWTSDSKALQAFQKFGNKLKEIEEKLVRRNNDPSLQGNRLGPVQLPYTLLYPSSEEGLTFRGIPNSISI
Protocol: The anti-inflammatory activity of test samples was evaluated using a standard protocol [65]. To the enzyme solution (200 units/mL; 487.5 µL), different concentrations of test sample (12.5 µL (2–0.062 mM) in DMSO were added and incubated for 5 min at 37 °C. The absorbance was recorded immediately after the addition of substrate (500 µL of substrate (250 mM linoleic acid in 0.2 M borate buffer, pH 9) and after every min up to 5 min at 234 nm by using a UV spectrophotometer (UV-1601, SHEMADZU, Kyoto, Japan).
The percentage inhibition of enzyme activity was calculated as follows:% inhibition = ([ΔA1/Δt] − [ΔA2/Δt]/(ΔA1/Δt) × 100 where ΔA1/Δt and ΔA2/Δt are the increase rate in absorbance at 234 nm for a sample without test substance and with test substance, respectively.

[4] = target: T5, BSA cross-link formation (BSA-glucose) (Bos taurus, UniProt P02769); experiment: Protein cross-linking assay by SDS-PAGE, BSA-glucose; assay type: biochemical, bovine; details: SDS-PAGE integrated density
T5 construct: purchased Merck (Dorset, UK) and Oxoid (Hampshire, UK)
T5 sequence (P02769 25-607): as the sequence (P02769 25-607) above
Protocol: as §1, §2, §3, §4

[5] = read-out: 15-LOX Assay (% Inhibition)
[6] = oxidative mode, Table 6, read-out: Protein Glycation BSA-MGO (IC50) (converted)
[7] = non-oxidative mode, Table 6, read-out: Protein Glycation BSA-Glucose (IC50) (converted)

With `S=C=NCCc1ccccc1` [2-Phenylethylisothiocyanate, 2-phenylethylisothiocyanate] the “α-Glucosidase (IC50)” value (α-glucosidase) was 28.9 ± 0.1 µg/mL, the “Protein Glycation BSA-MGO (IC50)” value [1] was “Inactive” and the “Inhibition of protein cross-link formation” value [2] was 48%. For the same molecule, the “Protein Glycation BSA-Glucose (IC50)” value [3] was “Inactive” and the “15-LOX Assay (% Inhibition)” value (15-LOX (lipoxygenase); 25 µg/mL) was “Inactive ^5”.
With `O=c1cc(-c2ccc(O)cc2)oc2cc(O)cc(O)c12` [Apigenin, apigenin] the “α-Glucosidase (IC50)” value (α-glucosidase) was 24.4 ± 0.1 µg/mL, the “Protein Glycation BSA-MGO (IC50)” value [1] was “Inactive” and the IC50 [3] was 1670 µM. For the same molecule, the “Inhibition of protein cross-link formation” value [4] was 51% and the inhibition at 14.1 µg/mL (15-LOX (lipoxygenase); 14.1 µg/mL) was 53 ± 0.1%.
For `C=C1CC[C@H]2O[C@]2(C)CC[C@@H]2[C@@H]1CC2(C)C` [Caryophyllene oxide, caryophyllene-oxide], the “α-Glucosidase (IC50)” value (α-glucosidase) was “Inactive”, the “Protein Glycation BSA-MGO (IC50)” value ([1]; oxidative mode, Table 6) was “Inactive” and the “Inhibition of protein cross-link formation” value [2] was 35%. For the same molecule, the “Protein Glycation BSA-Glucose (IC50)” value ([3]; non-oxidative mode, Table 6) was “Inactive” and the “15-LOX Assay (% Inhibition)” value (15-LOX (lipoxygenase); 12.5 µg/mL) was 50.0± 0.1% ^2.
With `C=C1CC/C=C(\C)CC[C@@H]2[C@@H]1CC2(C)C` [Caryophyllene, trans-caryophyllene] the “α-Glucosidase (IC50)” value (α-glucosidase) was “Inactive”, the “Protein Glycation BSA-MGO (IC50)” value [1] was “Inactive” and the “Protein Glycation BSA-Glucose (IC50)” value [3] was “Inactive”. For the same molecule, the “15-LOX Assay (% Inhibition)” value (15-LOX (lipoxygenase); 25 µg/mL) was “Inactive ^6”.
`C=CCc1ccc(O)c(OC)c1` [Eugenol, eugenol] was tested, and the “α-Glucosidase (IC50)” value (α-glucosidase) was “Inactive”, the “Protein Glycation BSA-MGO (IC50)” value [1] was “Inactive” and the IC50 [3] was 244 µM. For the same molecule, the inhibition at 83 µg/mL (15-LOX (lipoxygenase); [5]) was 51 ± 0.2%.
With `O=C1C=CC(=O)c2c(O)cccc21` [Juglone, juglone] the “α-Glucosidase (IC50)” value (α-glucosidase) was 5.7 ± 0.1 µg/mL, the IC50 [1, 6] was 632 µM and the “Inhibition of protein cross-link formation” value [2] was 39%. For the same molecule, the IC50 [3, 7] was 345 µM and the inhibition at 2.5 µg/mL (15-LOX (lipoxygenase); 2.5 µg/mL) was 57 ± 0.1%.
In the case of `O=c1c(O)c(-c2ccc(O)c(O)c2)oc2cc(O)cc(O)c12` [Quercetin, quercetin], the “Inhibition of protein cross-link formation” value [4] is reported as 53% and the inhibition at 25 µg/mL (15-LOX (lipoxygenase); 25 µg/mL) is reported as 62 ± 0.1%.
`C[C@@H]1O[C@@H](Oc2c(-c3ccc(O)c(O)c3)oc3cc(O)cc(O)c3c2=O)[C@H](O)[C@H](O)[C@H]1O` [Quercitrin, quercitrin] was tested, and the “α-Glucosidase (IC50)” value (α-glucosidase) was 7.6 ± 0.1 µg/mL, the IC50 [1] was 758 µM and the IC50 [3] was 201 µM. For the same molecule, the “Inhibition of protein cross-link formation” value [4] was 55% and the inhibition at 16.2 µg/mL (15-LOX (lipoxygenase); [5]) was 65 ± 0.1%.
`C[C@@H]1O[C@@H](OC[C@H]2O[C@@H](Oc3c(-c4ccc(O)c(O)c4)oc4cc(O)cc(O)c4c3=O)[C@H](O)[C@@H](O)[C@@H]2O)[C@H](O)[C@H](O)[C@H]1O` [Rutin, reference compound] showed an IC50 [1, 6] of 1670 µM, an IC50 [3, 7] of 49.1 µM and an inhibition at 12.5 µg/mL (15-LOX (lipoxygenase); 12.5 µg/mL) of 62 ± 0.1%.
With `O=C(O)c1cc(O)c(O)c(O)c1` [gallic acid] the “α-Glucosidase (IC50)” value (α-glucosidase) was 8.2 µg/mL.
`C/C1=C\CC/C(C)=C/CC(C)(C)/C=C/C1` [α-Humulene, α-humulene] was tested, and the “α-Glucosidase (IC50)” value (α-glucosidase) was “Inactive”, the “Protein Glycation BSA-MGO (IC50)” value ([1]; oxidative mode, Table 6) was “Inactive” and the “Inhibition of protein cross-link formation” value [2] was 40%. For the same molecule, the “Protein Glycation BSA-Glucose (IC50)” value ([3]; non-oxidative mode, Table 6) was “Inactive” and the “15-LOX Assay (% Inhibition)” value (15-LOX (lipoxygenase); 13.0 µg/mL) was 60.0 ± 0.1% ^3.
